Results taken from patent publication US20090221819A1, “FLUORESCENT COMPOUNDS AND USE OF SAID COMPOUNDS IN MULTIPHOTON METHODS OR DEVICES” (priority 2005, published 2009).

What was measured:
Type in all cases: physicochemical
[1] = two-photon absorption (TPA) cross-sections determined by two-photon excitation fluorescence (TPEF); conditions: for σ2, effective TPA cross-section at 700 nm / σ2, effective TPA cross-section at 990 nm / σ2, effective TPA cross-section at 750 nm: in toluene; for σ2, effective TPA cross-section at 700 nm / σ2, effective TPA cross-section at 990 nm: 10^−4 M
Experimental: The TPA spectra of the […] synthesized compounds (LP42, LP52, CL64, CL108, MC237 and MC263) as well as the reference boron dipyrromethene CL76 were also determined in the near-infrared ([…]) by studying their two-photon excitation fluorescence (TPEF), and are shown in FIG. 9.
The measurements were taken in toluene solutions of 10^−4 M, using a titanium-sapphire laser in locked mode generating pulses of ˜80 fs at 80 MHz.
The quadratic dependence of the fluorescence intensity with the excitation intensity was verified for each point of measurement. The calibration is done with respect to the effective TPEF cross-sections of the fluorescein in water (pH=11), which were determined absolutely in the former literature in the range of 690-1000 nm.
This method provides access to the effective TPEF cross-sections (σ2φ), from which the corresponding effective TPA cross-sections (σ2) are deduced. The data in the literature for compound PM556 are added for comparison.
(§1) Φ represents its fluorescence quantum efficiency, determined with respect to the fluorescein in NaOH 0.1N, σ2 represents its effective TPA cross-section (in GM, with 1 GM=10^−50 cm^4.s.photon^−1); the TPEF measurements were performed with a titanium-sapphire laser in locked mode generating pulses of ˜80 fs at 80 MHz, by calibrating with fluorescein),

[2] = absorption and photoluminescence characteristics (absorption and fluorescence emission spectra, quantum efficiency, lifetime); conditions: in toluene; for Φ, fluorescence quantum efficiency: determined with respect to fluorescein in NaOH 0.1N
Experimental: The absorption and photoluminescence characteristics of the 4 compounds of which the syntheses are described above were evaluated.
λabs represents the maximum absorption wavelength of the compound,
λem represents its maximum emission wavelength,
as §1
τ represents its fluorescence lifetime (also called the fluorescent decrease time).

[3] = water solubility

Compound	effective TPA cross-section relative to model CL76 at 700 nm ([1]; ratio to CL76) [times]	σ2, effective TPA cross-section at 700 nm [1] [GM]	σ2, effective TPA cross-section at 990 nm [1] [GM]	ε, molar extinction coefficient [2] [M⁻¹ cm⁻¹]	λabs, maximum absorption wavelength [2] [nm]	λem, maximum emission wavelength [2] [nm]	τ, fluorescence lifetime [2] [ns]	Φ, fluorescence quantum efficiency [2]	effective TPA cross-section relative to model CL76 at 750 nm ([1]; at 750 nm, ratio to CL76)	σ2, effective TPA cross-section at 750 nm ([1]; at 750 nm) [GM]	water solubility [3]	effective TPA cross-section relative to model CL76 at 990 nm ([1]; ratio to CL76) [times]
CCC1=C(C)C2=C(c3ccc(C#Cc4ccc(N(c5ccc(C#Cc6ccc(C7=C8C(C)=C(CC)C(C)=[N+]8[B-](F)(F)n8c(C)c(CC)c(C)c87)cc6)cc5)c5ccc(C#Cc6ccc(C7=C8C(C)=C(CC)C(C)=[N+]8[B-](F)(F)n8c(C)c(CC)c(C)c87)cc6)cc5)cc4)cc3)c3c(C)c(CC)c(C)n3[B-](F)(F)[N+]2=C1C [CL64]	9	190	45	221700	528	543	4.02	0.93				
CCC1=C(C)C2=C(c3ccc(-c4ccc(C5=C6C(C)=C(CC)C(C)=[N+]6[B-](F)(F)n6c(C)c(CC)c(C)c65)cc4)cc3)c3c(C)c(CC)c(C)n3[B-](F)(F)[N+]2=C1C [LP42, tetrafluoro[1-[2,2′-[(1,1′-biphenyl)-4,4′-diylbis[[4-ethyl-3,5-dimethyl-2H-pyrrol-2-ylidene-]methylene]]bis[4-ethyl-3,5-dimethyl-1H-pyrrolato]]]diboron]	3	57	48	161900	527	542	4.76	0.72				2.5
CCC1=C(C)C2=C(c3ccc(-c4cc(-c5ccc(C6=C7C(C)=C(CC)C(C)=[N+]7[B-](F)(F)n7c(C)c(CC)c(C)c76)cc5)cc(-c5ccc(C6=C7C(C)=C(CC)C(C)=[N+]7[B-](F)(F)n7c(C)c(CC)c(C)c76)cc5)c4)cc3)c3c(C)c(CC)c(C)n3[B-](F)(F)[N+]2=C1C [LP52, hexafluoro[μ3-[2,2′2″-[1,3,5-benzenetriyltris[4,1-phenylene[[4-ethyl-3,5-dimethyl-2H-pyrrol-2-ylidene]methylene]]tris[4-ethyl-3,5-dimethyl-1H-pyrrolato]]]]triboron]	4	82	75	244300	527	542	4.78	0.69				3.75
|4-ethyl-2-|(4-ethyl-3,5-dimethyl-2H-pyrrol-2-ylidene)phenyl methyl|-3,5-dimethyl-1H-pyrrolato|difluoroboron [CL76, reference compound]		20	20	76180	527	539		0.75		15		

Continued, in another order:

effective TPA cross-section relative to model CL76 at 700 nm ([1]; ratio to CL76) [times]	σ2, effective TPA cross-section at 700 nm [1] [GM]	σ2, effective TPA cross-section at 990 nm [1] [GM]	ε, molar extinction coefficient [2] [M⁻¹ cm⁻¹]	λabs, maximum absorption wavelength [2] [nm]	λem, maximum emission wavelength [2] [nm]	τ, fluorescence lifetime [2] [ns]	Φ, fluorescence quantum efficiency [2]	effective TPA cross-section relative to model CL76 at 750 nm ([1]; at 750 nm, ratio to CL76)	σ2, effective TPA cross-section at 750 nm ([1]; at 750 nm) [GM]	water solubility [3]	Compound	effective TPA cross-section relative to model CL76 at 990 nm ([1]; ratio to CL76) [times]
4	93	34	216400	528	544	3.95	0.89				CCC1=C(C)C2=C(c3ccc(C#Cc4ccc(-c5cc(-c6ccc(C#Cc7ccc(C8=C9C(C)=C(CC)C(C)=[N+]9[B-](F)(F)n9c(C)c(CC)c(C)c98)cc7)cc6)cc(-c6ccc(C#Cc7ccc(C8=C9C(C)=C(CC)C(C)=[N+]9[B-](F)(F)n9c(C)c(CC)c(C)c98)cc7)cc6)c5)cc4)cc3)c3c(C)c(CC)c(C)n3[B-](F)(F)[N+]2=C1C [MC237]	
	185	40	211100	528	542	4.36	1	18	270		CCC1=C(C)C2=C(c3ccc(-c4cn(-c5ccc(C#Cc6ccc(N(c7ccc(C#Cc8ccc(-n9cc(-c%10ccc(C%11=C%12C(C)=C(CC)C(C)=[N+]%12[B-](F)(F)n%12c(C)c(CC)c(C)c%12%11)cc%10)nn9)cc8)cc7)c7ccc(C#Cc8ccc(-n9cc(-c%10ccc(C%11=C%12C(C)=C(CC)C(C)=[N+]%12[B-](F)(F)n%12c(C)c(CC)c(C)c%12%11)cc%10)nn9)cc8)cc7)cc6)cc5)nn4)cc3)c3c(C)c(CC)c(C)n3[B-](F)(F)[N+]2=C1C [MC263]	
										perfectly water-soluble	CC1=C(S(=O)(=O)[O-])C(C)=[N+]2C1=C(c1ccc(C#Cc3ccc(-c4cc(-c5ccc(C#Cc6ccc(C7=C8C(C)=C(S(=O)(=O)[O-])C(C)=[N+]8[B-](F)(F)n8c(C)c(S(=O)(=O)[O-])c(C)c87)cc6)cc5)cc(-c5ccc(C#Cc6ccc(C7=C8C(C)=C(S(=O)(=O)[O-])C(C)=[N+]8[B-](F)(F)n8c(C)c(S(=O)(=O)[O-])c(C)c87)cc6)cc5)c4)cc3)cc1)c1c(C)c(S(=O)(=O)[O-])c(C)n1[B-]2(F)F.[Na+].[Na+].[Na+].[Na+].[Na+].[Na+] [MC297]	
